How the values were obtained:
Test in all cases: biochemical
Design in all cases: Eurofins recombinant human kinase profiling, remaining kinase activity as % of control, 10 uM ATP
Conditions in all cases: ATP 10 uM; read-out: %Ctrl@10 μM
[1] = biological target: T1, TrkC(h) (Homo sapiens, UniProt Q16288)
T1 construct: gene NTRK3
In short: (§1)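 Recombinant human kinases, 401 in total, screened using an outsourced kinase profiling assay.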

[2] = biological target: T2, IGF-1R(h) (Homo sapiens, UniProt P08069)
T2 construct: gene IGF1R
In short: as §1

[3] = biological target: SRPK2(h) (Homo sapiens, UniProt P78362)
Sequence of SRPK2(h) (P78362 whole entry): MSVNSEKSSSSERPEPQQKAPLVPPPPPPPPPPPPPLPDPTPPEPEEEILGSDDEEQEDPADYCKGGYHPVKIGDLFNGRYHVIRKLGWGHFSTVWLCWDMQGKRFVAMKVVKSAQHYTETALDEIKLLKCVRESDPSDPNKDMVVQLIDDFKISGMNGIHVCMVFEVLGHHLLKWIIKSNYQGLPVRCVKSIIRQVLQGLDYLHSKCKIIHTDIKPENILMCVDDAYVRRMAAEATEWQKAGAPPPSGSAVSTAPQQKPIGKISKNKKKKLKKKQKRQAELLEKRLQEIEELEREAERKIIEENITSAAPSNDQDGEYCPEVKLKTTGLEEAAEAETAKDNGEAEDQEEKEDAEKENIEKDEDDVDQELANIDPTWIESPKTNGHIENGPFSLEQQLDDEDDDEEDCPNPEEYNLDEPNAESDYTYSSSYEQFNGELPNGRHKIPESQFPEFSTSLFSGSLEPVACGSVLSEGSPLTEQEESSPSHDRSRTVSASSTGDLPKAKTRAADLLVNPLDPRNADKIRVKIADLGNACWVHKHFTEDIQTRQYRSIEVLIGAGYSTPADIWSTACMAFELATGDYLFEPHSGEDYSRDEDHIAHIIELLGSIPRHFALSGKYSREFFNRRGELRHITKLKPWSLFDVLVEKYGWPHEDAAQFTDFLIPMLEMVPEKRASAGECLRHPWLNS
In short: as §1

[4] = biological target: T3, MST3(h) (Homo sapiens, UniProt Q9Y6E0)
T3 construct: gene STK24
In short: as §1

[5] = biological target: T4, cKit(V560G)(h) (Homo sapiens, UniProt P10721, V560G)
T4 construct: gene KIT
In short: as §1

[6] = biological target: T5, ALK1(h) (Homo sapiens, UniProt P37023)
T5 construct: gene ACVRL1
T5 sequence (P37023 whole entry): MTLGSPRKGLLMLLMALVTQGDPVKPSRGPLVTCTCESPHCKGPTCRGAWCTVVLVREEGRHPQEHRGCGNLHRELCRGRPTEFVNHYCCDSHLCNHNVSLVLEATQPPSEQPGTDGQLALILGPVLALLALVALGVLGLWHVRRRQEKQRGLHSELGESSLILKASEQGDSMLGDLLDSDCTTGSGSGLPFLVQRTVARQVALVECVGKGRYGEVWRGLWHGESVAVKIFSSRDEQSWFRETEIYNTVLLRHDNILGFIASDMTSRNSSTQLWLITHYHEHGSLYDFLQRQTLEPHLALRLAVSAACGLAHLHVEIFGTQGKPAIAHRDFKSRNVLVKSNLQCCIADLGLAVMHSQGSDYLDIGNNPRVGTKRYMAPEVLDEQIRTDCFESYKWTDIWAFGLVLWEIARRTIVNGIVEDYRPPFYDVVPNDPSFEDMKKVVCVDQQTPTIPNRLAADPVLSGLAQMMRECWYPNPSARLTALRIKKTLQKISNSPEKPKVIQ
In short: as §1

[7] = biological target: EphA4(h) (Homo sapiens, UniProt P54764)
In short: as §1

[8] = biological target: MARK4(h) (Homo sapiens, UniProt Q96L34)
Sequence of MARK4(h) (Q96L34 whole entry): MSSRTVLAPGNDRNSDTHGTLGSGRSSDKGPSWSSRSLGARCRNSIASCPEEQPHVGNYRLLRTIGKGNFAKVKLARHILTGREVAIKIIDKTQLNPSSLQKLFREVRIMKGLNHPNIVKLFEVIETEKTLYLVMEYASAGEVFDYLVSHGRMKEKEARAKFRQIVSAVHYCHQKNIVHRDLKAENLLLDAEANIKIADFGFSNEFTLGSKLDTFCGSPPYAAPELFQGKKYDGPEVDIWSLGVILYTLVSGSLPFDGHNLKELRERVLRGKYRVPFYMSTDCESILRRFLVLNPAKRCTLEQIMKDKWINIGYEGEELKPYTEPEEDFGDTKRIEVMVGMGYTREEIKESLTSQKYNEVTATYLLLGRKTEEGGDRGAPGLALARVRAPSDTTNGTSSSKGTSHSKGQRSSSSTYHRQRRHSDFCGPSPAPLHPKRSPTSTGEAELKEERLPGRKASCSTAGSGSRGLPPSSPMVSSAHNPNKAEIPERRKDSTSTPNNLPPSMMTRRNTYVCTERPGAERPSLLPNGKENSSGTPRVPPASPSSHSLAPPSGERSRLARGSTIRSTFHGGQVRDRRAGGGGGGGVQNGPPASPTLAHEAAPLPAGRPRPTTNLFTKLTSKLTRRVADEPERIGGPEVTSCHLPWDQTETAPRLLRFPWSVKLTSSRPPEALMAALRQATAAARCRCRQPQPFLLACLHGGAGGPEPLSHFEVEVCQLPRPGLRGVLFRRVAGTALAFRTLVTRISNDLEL
In short: as §1

[9] = biological target: T6, AMPKα2(h) (Homo sapiens, UniProt P54646)
T6 construct: gene PRKAA2
In short: as §1

[10] = biological target: T7, IRR(h) (Homo sapiens, UniProt P14616)
T7 construct: gene INSRR
In short: as §1

[11] = biological target: NEK9(h) (Homo sapiens, UniProt Q8TD19)
In short: as §1

[12] = biological target: T8, PKR(h) (Homo sapiens, UniProt P19525)
T8 construct: gene EIF2AK2
In short: as §1

[13] = biological target: WNK2(h) (Homo sapiens, UniProt Q9Y3S1)
In short: as §1

[14] = biological target: PAK6(h) (Homo sapiens, UniProt Q9NQU5)
Sequence of PAK6(h) (Q9NQU5 whole entry): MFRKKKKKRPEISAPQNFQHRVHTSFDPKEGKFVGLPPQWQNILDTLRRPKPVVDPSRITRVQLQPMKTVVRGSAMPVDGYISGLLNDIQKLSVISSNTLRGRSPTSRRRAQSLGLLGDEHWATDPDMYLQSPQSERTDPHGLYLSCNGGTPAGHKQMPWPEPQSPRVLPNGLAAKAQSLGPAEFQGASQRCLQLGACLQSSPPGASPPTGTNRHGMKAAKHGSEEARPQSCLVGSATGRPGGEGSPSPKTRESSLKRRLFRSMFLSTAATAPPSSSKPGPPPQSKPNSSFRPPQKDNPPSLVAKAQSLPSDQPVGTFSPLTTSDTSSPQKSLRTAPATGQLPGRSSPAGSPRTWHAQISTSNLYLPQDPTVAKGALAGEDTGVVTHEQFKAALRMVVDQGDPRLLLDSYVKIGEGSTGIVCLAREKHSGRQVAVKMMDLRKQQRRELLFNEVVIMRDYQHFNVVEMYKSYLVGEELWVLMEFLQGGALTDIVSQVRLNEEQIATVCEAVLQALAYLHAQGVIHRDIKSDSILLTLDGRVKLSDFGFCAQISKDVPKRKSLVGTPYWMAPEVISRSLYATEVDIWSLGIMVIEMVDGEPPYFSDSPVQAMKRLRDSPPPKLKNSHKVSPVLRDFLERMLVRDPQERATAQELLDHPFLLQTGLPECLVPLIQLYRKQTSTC
In short: as §1

[15] = biological target: T9, PKG1β(h) (Homo sapiens, UniProt Q13976)
T9 construct: gene PRKG1; isoform 1beta
In short: as §1

[16] = biological target: PRKG2(h) (Homo sapiens, UniProt Q13237)
Sequence of PRKG2(h) (Q13237 whole entry): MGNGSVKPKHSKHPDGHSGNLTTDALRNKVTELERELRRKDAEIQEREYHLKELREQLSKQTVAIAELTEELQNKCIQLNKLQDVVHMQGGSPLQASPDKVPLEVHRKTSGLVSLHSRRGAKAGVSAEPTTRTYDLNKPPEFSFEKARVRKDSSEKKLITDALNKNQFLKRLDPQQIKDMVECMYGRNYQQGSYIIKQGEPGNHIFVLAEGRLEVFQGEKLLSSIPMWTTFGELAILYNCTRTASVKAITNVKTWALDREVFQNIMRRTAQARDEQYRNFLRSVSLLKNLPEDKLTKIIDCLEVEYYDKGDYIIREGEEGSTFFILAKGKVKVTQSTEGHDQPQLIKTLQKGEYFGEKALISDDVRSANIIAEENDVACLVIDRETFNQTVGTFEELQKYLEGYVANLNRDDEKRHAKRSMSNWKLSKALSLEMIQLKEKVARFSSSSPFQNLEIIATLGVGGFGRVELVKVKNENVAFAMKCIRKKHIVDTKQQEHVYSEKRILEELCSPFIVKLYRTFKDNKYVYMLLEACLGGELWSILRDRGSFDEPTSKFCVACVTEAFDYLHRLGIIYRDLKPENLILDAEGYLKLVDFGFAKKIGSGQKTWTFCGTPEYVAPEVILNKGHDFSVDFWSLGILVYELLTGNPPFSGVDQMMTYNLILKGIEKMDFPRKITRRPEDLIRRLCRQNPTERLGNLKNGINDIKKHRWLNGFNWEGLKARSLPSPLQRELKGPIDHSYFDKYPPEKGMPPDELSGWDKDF
In short: as §1

[17] = biological target: T10, PDGFRα(h) (Homo sapiens, UniProt P16234)
T10 construct: gene PDGFRA
T10 sequence (P16234 whole entry): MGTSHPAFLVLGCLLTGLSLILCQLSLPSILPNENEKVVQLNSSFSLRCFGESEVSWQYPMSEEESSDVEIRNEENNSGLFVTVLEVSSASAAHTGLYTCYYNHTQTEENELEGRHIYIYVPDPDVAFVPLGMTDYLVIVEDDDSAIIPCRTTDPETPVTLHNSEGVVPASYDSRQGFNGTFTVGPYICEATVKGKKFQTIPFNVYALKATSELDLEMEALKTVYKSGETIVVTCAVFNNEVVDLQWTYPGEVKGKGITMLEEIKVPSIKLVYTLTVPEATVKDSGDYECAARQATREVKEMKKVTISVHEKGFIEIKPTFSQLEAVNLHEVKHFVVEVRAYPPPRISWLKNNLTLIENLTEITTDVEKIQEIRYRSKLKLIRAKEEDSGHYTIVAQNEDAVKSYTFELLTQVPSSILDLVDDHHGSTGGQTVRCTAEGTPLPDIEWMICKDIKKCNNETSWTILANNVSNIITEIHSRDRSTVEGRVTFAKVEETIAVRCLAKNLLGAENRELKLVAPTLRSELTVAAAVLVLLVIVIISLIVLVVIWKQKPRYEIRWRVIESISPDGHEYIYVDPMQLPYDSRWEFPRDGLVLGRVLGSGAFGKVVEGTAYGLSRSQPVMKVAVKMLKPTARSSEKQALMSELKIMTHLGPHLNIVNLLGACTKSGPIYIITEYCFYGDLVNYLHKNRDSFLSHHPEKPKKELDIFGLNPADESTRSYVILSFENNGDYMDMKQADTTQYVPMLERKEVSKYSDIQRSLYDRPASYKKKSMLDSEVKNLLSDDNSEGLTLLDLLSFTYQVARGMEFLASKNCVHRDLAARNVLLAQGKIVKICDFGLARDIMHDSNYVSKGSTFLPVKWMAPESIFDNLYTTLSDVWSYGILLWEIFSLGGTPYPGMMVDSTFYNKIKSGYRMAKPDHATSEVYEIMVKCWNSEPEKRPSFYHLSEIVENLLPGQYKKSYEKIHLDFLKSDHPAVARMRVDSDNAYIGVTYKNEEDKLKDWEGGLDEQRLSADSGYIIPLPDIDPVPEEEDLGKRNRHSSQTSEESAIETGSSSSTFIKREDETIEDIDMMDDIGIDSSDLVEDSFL
In short: as §1

[18] = biological target: T11, cKit(D816H)(h) (Homo sapiens, UniProt P10721, D816H)
T11 construct: gene KIT
In short: as §1

[19] = biological target: VRK2(h) (Homo sapiens, UniProt Q86Y07)
Sequence of VRK2(h) (Q86Y07 whole entry): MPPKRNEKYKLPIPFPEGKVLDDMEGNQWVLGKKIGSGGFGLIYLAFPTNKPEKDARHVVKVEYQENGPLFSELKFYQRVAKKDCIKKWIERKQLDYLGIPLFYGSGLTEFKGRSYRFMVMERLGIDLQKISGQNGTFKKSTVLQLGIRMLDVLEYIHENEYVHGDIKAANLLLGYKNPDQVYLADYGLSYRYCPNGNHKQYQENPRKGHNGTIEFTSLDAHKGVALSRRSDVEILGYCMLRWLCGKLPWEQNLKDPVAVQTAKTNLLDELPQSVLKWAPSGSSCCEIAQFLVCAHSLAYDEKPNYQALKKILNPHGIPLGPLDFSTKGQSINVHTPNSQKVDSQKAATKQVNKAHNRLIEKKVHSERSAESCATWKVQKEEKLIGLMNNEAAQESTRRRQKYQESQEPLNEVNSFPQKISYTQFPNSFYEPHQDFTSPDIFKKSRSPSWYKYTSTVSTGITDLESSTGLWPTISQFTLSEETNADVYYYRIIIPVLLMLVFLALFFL
In short: as §1

[20] = biological target: T12, Wee1B(h) (Homo sapiens, UniProt P0C1S8)
T12 construct: gene WEE2
In short: as §1

[21] = biological target: Hck(h) activated (Homo sapiens, UniProt P08631)
In short: as §1

[22] = biological target: T13, CRIK(h) (Homo sapiens, UniProt O14578)
T13 construct: gene CIT
In short: as §1

[23] = biological target: CDK16/cyclinY(h) (Homo sapiens, UniProt Q00536)
In short: as §1

Structure (SMILES): C1=C(c2nc(-c3cnn(C4CCNCC4)c3)cn3cc(-c4ccccc4)nc23)CCOC1 [YL-939]
- remaining activity at 10 µM [1]: 64%
- remaining activity at 10 µM [2]: 82%
- remaining activity at 10 µM [3]: 87%
- remaining activity at 10 µM [4]: 97%
- remaining activity at 10 µM [5]: 88%
- remaining activity at 10 µM [6]: 94%
- remaining activity at 10 µM [7]: 89%
- remaining activity at 10 µM [8]: 111%
- remaining activity at 10 µM [9]: 100%
- remaining activity at 10 µM [10]: 74%
- remaining activity at 10 µM [11]: 99%
- remaining activity at 10 µM [12]: 97%
- remaining activity at 10 µM [13]: 76%
- remaining activity at 10 µM [14]: 65%
- remaining activity at 10 µM [15]: 83%
- remaining activity at 10 µM [16]: 97%
- remaining activity at 10 µM [17]: 76%
- remaining activity at 10 µM [18]: 90%
- remaining activity at 10 µM [19]: 92%
- remaining activity at 10 µM [20]: 92%
- remaining activity at 10 µM [21]: 105%
- remaining activity at 10 µM [22]: 101%
- remaining activity at 10 µM [23]: 80%
